Results reported in ChEMBL document CHEMBL1139473, “Design, synthesis, and biological evaluation of dual binding site acetylcholinesterase inhibitors: new disease-modifying agents for Alzheimer's disease” (J Med Chem, 2005).

What was measured:
Cholinesterase = Cholinesterase (Homo sapiens, UniProt P06276)
Description: Inhibition of human serum BChE

Acetylcholinesterase [1] = molecular target: T1, Acetylcholinesterase (Bos taurus, UniProt P23795); assay: biochemical
T1 sequence (P23795 whole entry): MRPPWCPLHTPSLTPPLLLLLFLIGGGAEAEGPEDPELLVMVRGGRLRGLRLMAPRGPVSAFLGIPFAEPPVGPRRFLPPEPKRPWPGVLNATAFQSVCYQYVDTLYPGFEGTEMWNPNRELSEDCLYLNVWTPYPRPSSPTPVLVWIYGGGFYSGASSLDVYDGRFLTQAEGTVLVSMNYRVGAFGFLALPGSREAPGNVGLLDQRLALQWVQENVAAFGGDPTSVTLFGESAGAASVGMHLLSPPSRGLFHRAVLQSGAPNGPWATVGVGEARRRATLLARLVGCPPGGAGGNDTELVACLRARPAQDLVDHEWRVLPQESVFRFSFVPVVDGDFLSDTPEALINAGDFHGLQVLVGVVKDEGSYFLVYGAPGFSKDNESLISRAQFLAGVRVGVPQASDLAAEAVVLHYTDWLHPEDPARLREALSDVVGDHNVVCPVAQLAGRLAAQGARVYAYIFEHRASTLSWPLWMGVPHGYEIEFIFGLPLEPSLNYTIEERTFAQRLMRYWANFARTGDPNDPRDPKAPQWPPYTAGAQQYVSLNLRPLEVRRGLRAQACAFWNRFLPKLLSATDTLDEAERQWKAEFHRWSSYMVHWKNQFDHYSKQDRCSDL
Description: Inhibition of AchE in bovine erythrocytes

[2] = molecular target: Cholinesterases; ACHE & BCHE (Homo sapiens) (UniProt P06276+P22303); assay: Selectivity for human BChE over human AChE; type: protein assay
Acetylcholinesterase [3] = molecular target: T2, Acetylcholinesterase (Homo sapiens, UniProt P22303); assay: Inhibition of human AChE-induced beta amyloid peptide(1-40) aggregation at 100 uM by thioflavin T-based fluorometric assay; type: functional
Acetylcholinesterase [4] = molecular target: T2, Acetylcholinesterase
Description: Inhibition of human brain AchE

Acetylcholinesterase [5] = molecular target: T2, Acetylcholinesterase; remark: listed apart in the source
SH-SY5Y = assay: Cytotoxicity against human SHSY5Y cells at 10 uM after 48 hrs; type: cell-based

Chain of Cholinesterases; ACHE & BCHE (Homo sapiens) (P06276 whole entry, looked up): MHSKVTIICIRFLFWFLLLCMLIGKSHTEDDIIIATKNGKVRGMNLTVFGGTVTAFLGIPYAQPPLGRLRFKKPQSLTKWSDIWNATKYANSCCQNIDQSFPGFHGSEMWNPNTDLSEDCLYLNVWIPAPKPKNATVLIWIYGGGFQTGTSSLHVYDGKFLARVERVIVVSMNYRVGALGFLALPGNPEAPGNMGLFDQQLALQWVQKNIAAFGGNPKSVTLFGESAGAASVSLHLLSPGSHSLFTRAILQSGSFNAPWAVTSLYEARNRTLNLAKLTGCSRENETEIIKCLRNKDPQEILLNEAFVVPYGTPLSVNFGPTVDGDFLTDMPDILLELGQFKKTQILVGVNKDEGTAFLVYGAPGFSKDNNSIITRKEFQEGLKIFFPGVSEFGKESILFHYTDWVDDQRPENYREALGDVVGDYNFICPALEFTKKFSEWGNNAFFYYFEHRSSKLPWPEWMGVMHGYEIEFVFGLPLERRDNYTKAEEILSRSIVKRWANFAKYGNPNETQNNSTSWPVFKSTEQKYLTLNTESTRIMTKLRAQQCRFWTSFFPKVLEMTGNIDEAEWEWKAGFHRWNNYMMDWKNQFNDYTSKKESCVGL
Chain of Cholinesterases; ACHE & BCHE (Homo sapiens) (P22303 whole entry, looked up): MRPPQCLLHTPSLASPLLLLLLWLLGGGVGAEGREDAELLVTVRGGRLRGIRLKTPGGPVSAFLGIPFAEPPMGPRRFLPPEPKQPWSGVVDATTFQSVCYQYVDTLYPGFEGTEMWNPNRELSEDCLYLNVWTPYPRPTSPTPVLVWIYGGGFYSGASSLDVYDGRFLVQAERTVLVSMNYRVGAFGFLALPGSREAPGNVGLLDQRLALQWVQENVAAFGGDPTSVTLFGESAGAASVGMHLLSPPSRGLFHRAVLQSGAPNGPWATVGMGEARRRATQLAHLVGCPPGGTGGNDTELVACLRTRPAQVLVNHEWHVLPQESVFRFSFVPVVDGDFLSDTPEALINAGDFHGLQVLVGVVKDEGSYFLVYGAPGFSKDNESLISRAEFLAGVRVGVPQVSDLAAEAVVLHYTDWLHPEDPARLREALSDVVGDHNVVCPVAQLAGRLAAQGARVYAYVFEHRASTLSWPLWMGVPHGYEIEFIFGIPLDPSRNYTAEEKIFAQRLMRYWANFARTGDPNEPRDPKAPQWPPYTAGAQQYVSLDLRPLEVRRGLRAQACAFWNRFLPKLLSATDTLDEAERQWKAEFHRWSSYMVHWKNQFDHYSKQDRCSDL
Chain of Cholinesterase (P06276 whole entry): as the sequence (P06276 whole entry, looked up) above
T2 sequence (P22303 whole entry): as the sequence (P22303 whole entry, looked up) above

| Compound | IC50 (Cholinesterase) [nM] | IC50 (Acetylcholinesterase [1]) [nM] | Ratio IC50 [2] | inhibition (Acetylcholinesterase [3]) [%] | IC50 (Acetylcholinesterase [4]) [nM] | Ki (Acetylcholinesterase [4]) [nM] | IC50 (Acetylcholinesterase [5]) [nM] | Activity (SH-SY5Y) |
| --- | --- | --- | --- | --- | --- | --- | --- | --- |
| O=C(/C=C/c1c[nH]c2ccccc12)NCCCCCCNc1c2c(nc3cc(Cl)ccc13)CCCC2 | 77 | 18 | – | – | – | – | – | – |
| O=C(CCCc1c[nH]c2ccccc12)NCCCCCCNc1c2c(nc3cc(Cl)ccc13)CCCC2 | – | 0.5 | – | – | – | – | – | – |
| Cn1cc(C(=O)NCCCCCCCNc2c3c(nc4cc(Cl)ccc24)CCCC3)c2ccccc21 | 206 | 10.9 | – | – | – | – | – | – |
| O=C(CCOc1c[nH]c2ccccc12)NCCCCCNc1c2c(nc3cc(Cl)ccc13)CCCC2 | 136 | 1.5 | – | – | – | – | – | – |
| O=C(Cc1c[nH]c2ccc(Br)cc12)NCCCCCCCNc1c2c(nc3cc(Cl)ccc13)CCCC2 | – | 0.6 | 0.14 | 82 | 0.23 | 0.02 | 15000 | – |
| O=C(CCc1c[nH]c2ccccc12)NCCCCCCCCCc1c2c(nc3cc(Cl)ccc13)CCCC2 | 9.6 | – | – | – | – | – | – | – |
| O=C(CCc1c[nH]c2ccccc12)NCCCCCCCNc1c2c(nc3cc(Cl)ccc13)CCCC2 | – | – | 0.22 | 96 | 0.02 | 0.009 | 6000 | Active |
| O=C(Cc1c[nH]c2ccccc12)NCCCCCCCNc1c2c(nc3cc(Cl)ccc13)CCCC2 | 11.7 | 0.2 | 0.01 | 84 | 0.12 | 0.015 | 7000 | – |
| O=C(CCOc1c[nH]c2ccccc12)NCCCCCCCNc1c2c(nc3cc(Cl)ccc13)CCCC2 | 59 | 3 | – | – | – | – | – | – |
| O=C(CCc1c[nH]c2ccccc12)NCCCCCNc1c2c(nc3cc(Cl)ccc13)CCCC2 | 16 | – | – | – | – | – | – | – |
| O=C(CCc1c[nH]c2ccccc12)NCCCCCCCCNc1c2c(nc3cc(Cl)ccc13)CCCC2 | – | – | – | – | – | – | – | Active |
| O=C(CCc1c[nH]c2ccccc12)NCCCCCCCCCCNc1c2c(nc3ccccc13)CCCC2 | 54 | 21.9 | – | – | – | – | – | – |
| O=C(CCCc1c[nH]c2ccccc12)NCCCCCNc1c2c(nc3cc(Cl)ccc13)CCCC2 | 3.2 | 0.3 | 0.04 | 99 | 0.13 | 0.0017 | 2000 | – |
| N#Cc1ccc2[nH]cc(CCC(=O)NCCCCCCNc3c4c(nc5cc(Cl)ccc35)CCCC4)c2c1 | 11.7 | 0.7 | – | – | – | – | – | – |
| O=C(CCc1c[nH]c2ccccc12)NCCCCCCNc1c2c(nc3cc(Cl)ccc13)CCCC2 | – | – | 0.02 | 98 | 0.07 | 0.014 | 2000 | – |
| O=C(CCOc1c[nH]c2ccccc12)NCCCCCCNc1c2c(nc3cc(Cl)ccc13)CCCC2 | 60 | 0.7 | – | – | – | – | – | – |
| CN(CCCNC(=O)CCc1c[nH]c2ccccc12)CCCNc1c2c(nc3cc(Cl)ccc13)CCCC2 | 21.4 | – | – | – | – | – | – | Active |
